Measured values taken from ChEMBL document CHEMBL3785058, “Design and synthesis of novel 3-sulfonylpyrazol-4-amino pyrimidines as potent anaplastic lymphoma kinase (ALK) inhibitors” (Bioorg Med Chem Lett, 2016).
Blank lines part the entries; values can stand above or below the compound they belong to. The source made the active and inactive calls. The rule behind the calls is not given here.

What was measured:
NCI-H2228 [1] = experiment: Antiproliferative activity against human NCI-H2228 cells after 96 hrs by CellTiter-Glo assay; assay type: functional, cell-based; details: NCI-H2228, 96 h
[2] = target: ALK tyrosine kinase receptor (Homo sapiens, UniProt Q9UM73); experiment: Inhibition of recombinant human wild type ALK using tyrosine kinase substrate-biotin after 30 mins by HTRF assay
[3] = target: ALK tyrosine kinase receptor (Homo sapiens, UniProt Q9UM73, L1196M); experiment: Inhibition of recombinant human ALK L1196M mutant using tyrosine kinase substrate-biotin after 30 mins by HTRF assay
[4] = Antiproliferative activity against human KARPAS299 cells after 96 hrs by CellTiter-Glo assay; assay type: functional, cell-based; details: KARPAS-299, 96 h
[5] = Ratio of IC50 for human ERG to IC50 for human NCI-H2228 cells
Mus musculus [6] = experiment: In vivo inhibition of ALK in human KARPAS299 cells xenografted in mouse assessed as suppression of STAT3 phosphorylation at 20 mg/kg measured after 8 hrs; assay type: functional; details: KARPAS-299, 8 h
[7] = Half life in Balb/c nude mouse at 1 mg/kg, iv; assay type: ADME, organism-based; details: in vivo
[8] = AUC(0 to infinity) in Balb/c nude mouse at 1 mg/kg, iv; assay type: ADME, organism-based; set-up: dose 1 mg/kg, route intravenous, time infinity; details: in vivo
[9] = Volume of distribution in Balb/c nude mouse at 1 mg/kg, iv; assay type: ADME, organism-based; details: in vivo
[10] = Clearance in Balb/c nude mouse at 1 mg/kg, iv; assay type: ADME, organism-based; details: in vivo
[11] = Half life in Sprague-Dawley rat at 1 mg/kg, iv; assay type: ADME, organism-based; details: in vivo
[12] = AUC(0 to infinity) in Sprague-Dawley rat at 1 mg/kg, iv; assay type: ADME, organism-based; set-up: dose 1 mg/kg, route intravenous, time infinity; details: in vivo
[13] = Volume of distribution in Sprague-Dawley rat at 1 mg/kg, iv; assay type: ADME, organism-based; details: in vivo
[14] = Clearance in Sprague-Dawley rat at 1 mg/kg, iv; assay type: ADME, organism-based; details: in vivo
[15] = Half life in Beagle dog at 1 mg/kg, iv; assay type: ADME, organism-based, Canis lupus familiaris; details: in vivo
[16] = AUC(0 to infinity) in Beagle dog at 1 mg/kg, iv; assay type: ADME, organism-based, Canis lupus familiaris; set-up: dose 1 mg/kg, time infinity, route intravenous; details: in vivo
[17] = Volume of distribution in Beagle dog at 1 mg/kg, iv; assay type: ADME, organism-based, Canis lupus familiaris; details: in vivo
[18] = Clearance in Beagle dog at 1 mg/kg, iv; assay type: ADME, organism-based, Canis lupus familiaris; details: in vivo
[19] = Cmax in Balb/c nude mouse at 5 mg/kg, po; assay type: ADME, organism-based; set-up: dose 5 mg/kg, route oral; details: in vivo
[20] = Tmax in Balb/c nude mouse at 5 mg/kg, po; assay type: ADME, organism-based; details: in vivo
[21] = AUC(0 to infinity) in Balb/c nude mouse at 5 mg/kg, po; assay type: ADME, organism-based; set-up: dose 5 mg/kg, time infinity, route oral; details: in vivo
[22] = Oral bioavailability in Balb/c nude mouse at 5 mg/kg; assay type: ADME, organism-based; details: in vivo
[23] = Cmax in Sprague-Dawley rat at 5 mg/kg, po; assay type: ADME, organism-based; set-up: dose 5 mg/kg, route oral; details: in vivo
[24] = Tmax in Sprague-Dawley rat at 5 mg/kg, po; assay type: ADME, organism-based; details: in vivo
[25] = AUC(0 to infinity) in Sprague-Dawley rat at 5 mg/kg, po; assay type: ADME, organism-based; set-up: dose 5 mg/kg, route oral, time infinity; details: in vivo
[26] = Oral bioavailability in Sprague-Dawley rat at 5 mg/kg; assay type: ADME, organism-based; details: in vivo
[27] = Cmax in Beagle dog at 3 mg/kg, po; assay type: ADME, organism-based, Canis lupus familiaris; set-up: dose 3 mg/kg, route oral; details: in vivo
[28] = Tmax in Beagle dog at 3 mg/kg, po; assay type: ADME, organism-based, Canis lupus familiaris; details: in vivo
[29] = AUC(0 to infinity) in Beagle dog at 3 mg/kg, po; assay type: ADME, organism-based, Canis lupus familiaris; set-up: dose 3 mg/kg, route oral, time infinity; details: in vivo
[30] = Oral bioavailability in Beagle dog at 3 mg/kg; assay type: ADME, organism-based, Canis lupus familiaris; details: in vivo
NCI-H2228 [31] = experiment: Antitumor activity against human NCI-H2228 cells xenografted in Balb/c nude mouse assessed as tumor growth inhibition at 3 mg/kg, po qd administered for two weeks measured on day 14 post last dose; assay type: functional; details: 336 h, read-out: TGI
NCI-H2228 [32] = experiment: Antitumor activity against human NCI-H2228 cells xenografted in Balb/c nude mouse assessed as tumor growth inhibition at 30 mg/kg, po qd administered for two weeks measured on day 14 post last dose; assay type: functional; details: 336 h, read-out: TGI
Mus musculus [33] = experiment: Toxicity in Balb/c nude mouse xenografted with human NCI-H2228 cells assessed as change in body weight at 30 mg/kg, po qd administered for two weeks; assay type: organism-based; details: in vivo
NCI-H2228 [34] = details: Homo sapiens
Description: Antitumor activity against human NCI-H2228 cells xenografted in Balb/c nude mouse assessed as tumor growth inhibition administered as po qd for two weeks

NCI-H2228 [35] = details: Homo sapiens; remark: listed apart in the source
Description: Antitumor activity against human NCI-H2228 cells xenografted in Balb/c nude mouse assessed as tumor growth inhibition at 10 mg/kg, po qd administered for two weeks

NCI-H2228 [36] = details: Homo sapiens; remark: listed apart in the source
Description: Antitumor activity against human NCI-H2228 cells xenografted in Balb/c nude mouse assessed as tumor growth inhibition at 30 mg/kg, po qd administered for two weeks measured after 1 week during compound dosing

ALK tyrosine kinase receptor (Homo sapiens, UniProt Q9UM73), sequence (Q9UM73 whole entry): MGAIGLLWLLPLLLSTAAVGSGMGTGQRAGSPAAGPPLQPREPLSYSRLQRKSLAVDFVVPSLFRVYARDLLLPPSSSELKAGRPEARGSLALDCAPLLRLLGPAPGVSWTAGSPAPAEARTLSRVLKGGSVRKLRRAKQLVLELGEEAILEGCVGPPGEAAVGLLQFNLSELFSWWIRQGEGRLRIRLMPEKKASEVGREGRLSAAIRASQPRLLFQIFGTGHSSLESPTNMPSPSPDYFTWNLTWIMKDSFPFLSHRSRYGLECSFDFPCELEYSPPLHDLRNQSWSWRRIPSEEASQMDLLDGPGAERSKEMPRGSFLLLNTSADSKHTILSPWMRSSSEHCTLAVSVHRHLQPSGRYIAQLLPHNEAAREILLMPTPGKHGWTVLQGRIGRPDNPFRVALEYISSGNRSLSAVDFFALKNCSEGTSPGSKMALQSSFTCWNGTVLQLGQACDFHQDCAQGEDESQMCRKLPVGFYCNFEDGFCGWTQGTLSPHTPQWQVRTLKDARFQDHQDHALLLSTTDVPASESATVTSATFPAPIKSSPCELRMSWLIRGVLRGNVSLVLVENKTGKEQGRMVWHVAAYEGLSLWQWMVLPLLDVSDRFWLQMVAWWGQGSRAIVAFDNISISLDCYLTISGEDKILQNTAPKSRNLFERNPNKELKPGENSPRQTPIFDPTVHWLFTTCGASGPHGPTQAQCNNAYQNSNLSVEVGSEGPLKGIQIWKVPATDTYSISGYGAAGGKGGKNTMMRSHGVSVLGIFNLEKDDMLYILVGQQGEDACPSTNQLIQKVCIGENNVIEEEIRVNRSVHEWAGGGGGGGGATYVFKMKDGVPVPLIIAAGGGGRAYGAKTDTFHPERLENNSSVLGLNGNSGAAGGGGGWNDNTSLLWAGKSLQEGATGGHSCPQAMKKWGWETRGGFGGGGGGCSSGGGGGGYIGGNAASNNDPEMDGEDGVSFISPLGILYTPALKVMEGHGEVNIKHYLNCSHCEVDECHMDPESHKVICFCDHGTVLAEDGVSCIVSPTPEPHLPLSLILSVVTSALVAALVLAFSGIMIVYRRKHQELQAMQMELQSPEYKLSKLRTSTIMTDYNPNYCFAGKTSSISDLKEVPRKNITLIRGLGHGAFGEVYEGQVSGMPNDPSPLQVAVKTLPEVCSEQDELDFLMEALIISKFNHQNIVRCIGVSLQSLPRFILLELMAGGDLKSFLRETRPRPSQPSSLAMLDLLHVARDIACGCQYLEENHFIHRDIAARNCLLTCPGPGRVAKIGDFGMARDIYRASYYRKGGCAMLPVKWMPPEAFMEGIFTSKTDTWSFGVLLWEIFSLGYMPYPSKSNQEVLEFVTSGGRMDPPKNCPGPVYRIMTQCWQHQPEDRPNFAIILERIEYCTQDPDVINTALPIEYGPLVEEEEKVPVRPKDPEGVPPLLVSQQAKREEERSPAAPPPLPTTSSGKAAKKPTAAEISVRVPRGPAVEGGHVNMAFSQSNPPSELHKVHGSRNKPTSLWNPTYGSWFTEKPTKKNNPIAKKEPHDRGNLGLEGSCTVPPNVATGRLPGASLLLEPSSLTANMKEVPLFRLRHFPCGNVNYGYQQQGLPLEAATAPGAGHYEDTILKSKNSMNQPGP
ALK tyrosine kinase receptor (Homo sapiens, UniProt Q9UM73, L1196M), sequence (Q9UM73 19-1620 L1196M limits assumed): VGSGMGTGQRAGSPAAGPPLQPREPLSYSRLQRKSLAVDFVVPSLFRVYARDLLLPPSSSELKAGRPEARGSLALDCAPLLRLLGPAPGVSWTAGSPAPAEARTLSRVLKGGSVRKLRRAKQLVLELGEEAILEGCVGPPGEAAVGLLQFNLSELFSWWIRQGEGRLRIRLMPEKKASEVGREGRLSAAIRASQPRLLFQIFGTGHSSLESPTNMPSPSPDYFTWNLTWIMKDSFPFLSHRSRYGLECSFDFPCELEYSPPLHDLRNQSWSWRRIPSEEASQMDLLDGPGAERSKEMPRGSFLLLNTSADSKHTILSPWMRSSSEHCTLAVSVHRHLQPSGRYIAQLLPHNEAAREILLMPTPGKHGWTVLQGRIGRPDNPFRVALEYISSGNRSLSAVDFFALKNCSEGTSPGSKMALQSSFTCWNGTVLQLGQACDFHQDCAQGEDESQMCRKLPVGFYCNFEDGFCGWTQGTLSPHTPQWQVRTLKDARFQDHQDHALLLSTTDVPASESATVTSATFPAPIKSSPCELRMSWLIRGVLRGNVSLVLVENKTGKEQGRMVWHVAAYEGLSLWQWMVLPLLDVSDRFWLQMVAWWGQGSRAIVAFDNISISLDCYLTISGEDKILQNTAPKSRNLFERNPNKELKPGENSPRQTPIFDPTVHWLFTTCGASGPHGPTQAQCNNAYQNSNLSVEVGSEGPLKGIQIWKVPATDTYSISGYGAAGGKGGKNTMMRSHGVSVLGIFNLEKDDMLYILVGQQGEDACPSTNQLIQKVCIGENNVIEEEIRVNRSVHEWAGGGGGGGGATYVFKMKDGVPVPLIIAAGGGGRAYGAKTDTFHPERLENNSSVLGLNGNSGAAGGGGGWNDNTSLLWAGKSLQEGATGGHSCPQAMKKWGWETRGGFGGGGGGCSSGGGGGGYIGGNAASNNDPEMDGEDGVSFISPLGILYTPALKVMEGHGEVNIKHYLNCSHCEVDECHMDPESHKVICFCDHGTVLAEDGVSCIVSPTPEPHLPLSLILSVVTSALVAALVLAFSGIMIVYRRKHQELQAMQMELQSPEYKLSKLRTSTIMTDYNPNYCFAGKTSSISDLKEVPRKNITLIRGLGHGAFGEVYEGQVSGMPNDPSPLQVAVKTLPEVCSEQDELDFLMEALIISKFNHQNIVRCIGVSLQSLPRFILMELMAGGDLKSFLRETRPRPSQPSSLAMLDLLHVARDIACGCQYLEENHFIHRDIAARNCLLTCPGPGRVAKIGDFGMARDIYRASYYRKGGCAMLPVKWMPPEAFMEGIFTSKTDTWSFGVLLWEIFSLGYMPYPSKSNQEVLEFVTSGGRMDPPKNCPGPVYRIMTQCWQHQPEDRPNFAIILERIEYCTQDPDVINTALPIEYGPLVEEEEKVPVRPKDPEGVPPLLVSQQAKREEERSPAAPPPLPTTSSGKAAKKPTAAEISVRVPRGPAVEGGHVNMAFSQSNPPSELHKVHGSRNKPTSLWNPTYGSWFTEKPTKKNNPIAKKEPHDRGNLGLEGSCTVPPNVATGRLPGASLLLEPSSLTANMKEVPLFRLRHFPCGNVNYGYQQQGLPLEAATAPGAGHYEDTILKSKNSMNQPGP

Compound: Cc1cc(Nc2ncc(Cl)c(Nc3c[nH]nc3S(=O)(=O)C(C)C)n2)c(OC(C)C)cc1C1CCNCC1
IC50 [2]: 22 nM
IC50 [3]: 28 nM
IC50 [4]: 1250 nM

Compound: Cc1nc(Nc2nc(Nc3cc(C)c(C4CCN(C)CC4)cc3OC3CC3)ncc2Cl)c(S(=O)(=O)C(C)C)s1
IC50 [2]: 3 nM
IC50 [3]: 19 nM
IC50 (NCI-H2228 [1]): 490 nM

Compound: Cc1cc(Nc2ncc(Cl)c(Nc3cn(C)nc3S(C)(=O)=O)n2)c(OC(C)C)cc1C1CCNCC1
IC50 [2]: 56 nM
IC50 [3]: 94 nM
IC50 [4]: 288 nM

Compound: CNC(=O)c1nn(C)cc1Nc1nc(Nc2cc(C)c(C3CCN(C)CC3)cc2OC2CC2)ncc1Cl
IC50 [2]: 12 nM
IC50 [3]: 24 nM
IC50 (NCI-H2228 [1]): 661 nM

Compound: COc1ccc(Cn2cc(Nc3nc(Nc4cc(C)c(C5CCNCC5)cc4OC(C)C)ncc3Cl)c(S(=O)(=O)C(C)C)n2)cc1
IC50 [2]: 129 nM
IC50 [3]: 157 nM
IC50 [4]: > 624 nM

Compound: CCn1cc(Nc2nc(Nc3cc(C)c(C4CCNCC4)cc3OC(C)C)ncc2Cl)c(S(=O)(=O)C(C)C)n1
IC50 [2]: 20 nM
IC50 [3]: 28 nM
IC50 [4]: 68 nM
IC50 (NCI-H2228 [1]): 764 nM

Compound: Cc1cc(Nc2ncc(Cl)c(Nc3cn(C)nc3C#N)n2)c(OC2CC2)cc1C1CCN(C)CC1
IC50 (NCI-H2228 [1]): 272 nM

Continued, in another order:

IC50 (NCI-H2228 [1]): 69 nM
Compound: Cc1cc(Nc2ncc(C)c(Nc3cn(C)nc3S(=O)(=O)C(C)C)n2)c(OC2CC2)cc1C1CCN(C)CC1

IC50 (NCI-H2228 [1]): 174 nM
Compound: Cc1cc(Nc2ncc(Cl)c(Nc3cn(C)nc3S(=O)(=O)C(C)C)n2)c(OC2CC2)cc1C1CCOCC1
IC50 [4]: 18 nM
Ratio IC50 [5]: 21

IC50 (NCI-H2228 [1]): 141 nM
Compound: Cc1cc(Nc2ncc(Cl)c(Nc3cn(C)nc3S(=O)(=O)C(C)C)n2)c(OC2CC2)cc1C1CCC(N2CCN(C)CC2)CC1 (mixture of isomers)
Ratio IC50 [5]: 6

IC50 (NCI-H2228 [1]): 76 nM
half-life [7]: 1.4 h
AUC(0-inf) [8]: 445 ng·h/mL
Vd [9]: 4.6 L/kg
clearance [10]: 37.5 mL/min/kg
half-life [11]: 4.5 h
AUC(0-inf) [12]: 770 ng·h/mL
Vd [13]: 8.5 L/kg
clearance [14]: 21.9 mL/min/kg
half-life [15]: 6.4 h
AUC(0-inf) [16]: 1500 ng·h/mL
Vd [17]: 6.1 L/kg
clearance [18]: 11.1 mL/min/kg
Cmax [19]: 446 ng/mL
Tmax [20]: 0.5 h
AUC(0-inf) [21]: 1700 ng·h/mL
bioavailability [22]: 76.5%
Cmax [23]: 220 ng/mL
Tmax [24]: 6 h
AUC(0-inf) [25]: 3200 ng·h/mL
bioavailability [26]: 85.3%
Cmax [27]: 355 ng/mL
Tmax [28]: 1 h
AUC(0-inf) [29]: 3340 ng·h/mL
bioavailability [30]: 74%
Compound: CC(=O)N1CCN([C@H]2CC[C@H](c3cc(OC4CC4)c(Nc4ncc(Cl)c(Nc5cn(C)nc5S(=O)(=O)C(C)C)n4)cc3C)CC2)CC1
IC50 [4]: 7 nM
Ratio IC50 [5]: 33
inhibition in vivo at 20 mg/kg (Mus musculus [6]): 79.2%
inhibition in vivo at 3 mg/kg (NCI-H2228 [31]): 50%
inhibition in vivo at 30 mg/kg (NCI-H2228 [32]): 140%
Activity (Mus musculus [33]): Non-toxic
TGI (NCI-H2228 [34]): Dose-dependent effect
TGI (NCI-H2228 [35]): Active
TGI (NCI-H2228 [36]): Active

IC50 [2]: 8 nM
IC50 [3]: 20 nM
IC50 (NCI-H2228 [1]): 116 nM
Compound: Cc1cc(Nc2ncc(Cl)c(Nc3cn(C)nc3S(=O)(=O)C(C)C)n2)c(OC2CC2)cc1[C@H]1CC[C@@H](NC2CC2)CC1
Ratio IC50 [5]: 15

IC50 (NCI-H2228 [1]): 68 nM
Compound: CCN(CC)[C@H]1CC[C@H](c2cc(OC3CC3)c(Nc3ncc(Cl)c(Nc4cn(C)nc4S(=O)(=O)C(C)C)n3)cc2C)CC1

IC50 (NCI-H2228 [1]): 193 nM
Compound: Cc1cc(Nc2ncc(Cl)c(Nc3cn(C)nc3S(=O)(=O)CC(C)C)n2)c(OC(C)C)cc1C1CCNCC1
IC50 [4]: 24 nM

IC50 [2]: 5 nM
IC50 [3]: 10 nM
IC50 (NCI-H2228 [1]): 72 nM
Compound: Cc1cc(Nc2ncc(Cl)c(Nc3cn(C)nc3S(=O)(=O)C(C)C)n2)c(OC2CC2)cc1[C@H]1CC[C@@H](NC(C)C)CC1
Ratio IC50 [5]: 15

IC50 (NCI-H2228 [1]): 224 nM
Compound: CCC(C)S(=O)(=O)c1nn(C)cc1Nc1nc(Nc2cc(C)c(C3CCNCC3)cc2OC(C)C)ncc1Cl (configuration not stated)
IC50 [4]: 21 nM

IC50 [2]: 16 nM
IC50 [3]: 20 nM
IC50 (NCI-H2228 [1]): 151 nM
Compound: Cc1cc(Nc2ncc(Cl)c(Nc3cn(C)nc3S(=O)(=O)C(C)C)n2)c(OC2CC2)cc1[C@H]1CC[C@H](NS(C)(=O)=O)CC1
IC50 [4]: 18 nM
